# Reference: PubChem BioAssay (NCI)
#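 Abbreviation: GI50, concentration required for 50% inhibition of growth. TGI denotes the concentration required for complete inhibition of growth.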
# How the values were obtained:
# Assay in all cases: NCI tumour cell line growth inhibition, 384-well format
# [1] = system: IGROV1 ovarian
# [2] = system: SNB-19 CNS
# [3] = system: ACHN renal
# [4] = system: KM12 colon
# [5] = system: RXF 393 renal
# [6] = system: TK-10 renal
# [7] = system: HCT-116 colon
# [8] = system: SK-MEL-2 melanoma
# [9] = system: OVCAR-3 ovarian
# [10] = system: COLO 205 colon
# [11] = system: A549 NSCLC
# [12] = system: BT-549 breast
# [13] = system: NCI-H226 lung
# [14] = system: T-47D breast
# [15] = system: UACC-257 melanoma
# [16] = system: SK-MEL-5 melanoma
# [17] = system: UO-31 renal
# [18] = system: SK-OV-3 ovarian
# [19] = system: HOP-62 NSCLC
# [20] = system: SF-295 CNS
# [21] = system: OVCAR-8 ovarian
# [22] = system: PC-3 prostate
# [23] = system: SF-539 CNS
# [24] = system: SN12C renal
# [25] = system: NCI-H322M lung
# [26] = system: HS 578T breast
# [27] = system: SF-268 CNS
# [28] = system: EKVX NSCLC
# [29] = system: CAKI-1 renal
# [30] = system: HCT-15 colon
# [31] = system: SR leukemia
# [32] = system: HL-60(TB) leukemia
# [33] = system: A498 renal
# [34] = system: NCI-H23 lung
# [35] = system: 786-0 renal
# [36] = system: NCI-H522 lung
# [37] = system: MOLT-4 leukemia
# [38] = system: OVCAR-4 ovarian
# [39] = system: UACC-62 melanoma
# [40] = system: MDA-MB-468 breast
# [41] = system: U251 glioblastoma
# [42] = system: DU-145 prostate
# [43] = system: SK-MEL-28 melanoma
# [44] = system: SW-620 colon
# [45] = system: HOP-92 NSCLC
# [46] = system: HT29 colon
# [47] = system: SNB-75 CNS
# [48] = system: NCI-H460 NSCLC
# [49] = system: MDA-MB-231 breast
# [50] = system: OVCAR-5 ovarian
# [51] = system: MALME-3M melanoma
# [52] = system: M14 melanoma
# [53] = system: K-562 leukemia
# [54] = system: MDA-MB-435 melanoma
compound,measurement,setting,value
Nc1nc(Nc2ccc3c(c2)CC[C@@H](N2CCCC2)CC3)nn1-c1cc2c(nn1)-c1ccccc1CCC2,GI50,[1],418 nM
same,TGI,[1],1550 nM
same,GI50,[2],1590 nM
same,TGI,[2],2960 nM
same,GI50,[3],431 nM
same,TGI,[3],1510 nM
same,GI50,[4],1070 nM
same,TGI,[4],2290 nM
same,GI50,[5],25.9 nM
same,TGI,[5],545 nM
same,GI50,[6],1010 nM
same,TGI,[6],2180 nM
same,GI50,[7],478 nM
same,TGI,[7],1730 nM
same,GI50,[8],415 nM
same,TGI,[8],1400 nM
same,GI50,[9],1150 nM
same,TGI,[9],2370 nM
same,GI50,[10],1500 nM
same,TGI,[10],2840 nM
same,GI50,[11],1380 nM
same,TGI,[11],2700 nM
same,GI50,[12],1080 nM
same,TGI,[12],2270 nM
same,GI50,[13],1450 nM
same,TGI,[13],2770 nM
same,GI50,[14],1210 nM
same,TGI,[14],2450 nM
same,GI50,[15],182 nM
same,TGI,[15],368 nM
same,GI50,[16],1060 nM
same,TGI,[16],2250 nM
same,GI50,[17],1040 nM
same,TGI,[17],2220 nM
same,GI50,[18],305 nM
same,TGI,[18],1240 nM
same,GI50,[19],1020 nM
same,TGI,[19],2190 nM
same,GI50,[20],634 nM
same,TGI,[20],1940 nM
same,GI50,[21],1520 nM
same,TGI,[21],2860 nM
same,GI50,[22],796 nM
same,TGI,[22],2050 nM
same,GI50,[23],244 nM
same,TGI,[23],1110 nM
same,GI50,[24],346 nM
same,TGI,[24],1680 nM
same,GI50,[25],529 nM
same,TGI,[25],1770 nM
same,GI50,[26],262 nM
same,TGI,[26],1270 nM
same,GI50,[27],1180 nM
same,TGI,[27],2410 nM
same,GI50,[28],1020 nM
same,TGI,[28],2190 nM
same,GI50,[29],493 nM
same,TGI,[29],1720 nM
same,GI50,[30],564 nM
same,TGI,[30],1800 nM
same,GI50,[31],186 nM
same,TGI,[31],328 nM
same,GI50,[32],1210 nM
same,TGI,[32],2450 nM
same,GI50,[33],327 nM
same,TGI,[33],1190 nM
same,GI50,[34],1330 nM
same,TGI,[34],2610 nM
same,GI50,[35],456 nM
same,TGI,[35],1640 nM
same,GI50,[36],1270 nM
same,TGI,[36],2540 nM
same,GI50,[37],186 nM
same,TGI,[37],334 nM
same,GI50,[38],1480 nM
same,TGI,[38],2800 nM
same,GI50,[39],773 nM
same,TGI,[39],2020 nM
same,GI50,[40],1450 nM
same,TGI,[40],2760 nM
same,GI50,[41],761 nM
same,TGI,[41],2020 nM
same,GI50,[42],939 nM
same,TGI,[42],2160 nM
same,GI50,[43],1400 nM
same,TGI,[43],2700 nM
same,GI50,[44],1140 nM
same,TGI,[44],2370 nM
same,GI50,[45],798 nM
same,TGI,[45],2070 nM
same,GI50,[46],326 nM
same,TGI,[46],1080 nM
same,GI50,[47],1140 nM
same,TGI,[47],2350 nM
same,GI50,[48],360 nM
same,TGI,[48],1280 nM
same,GI50,[49],1630 nM
same,TGI,[49],3000 nM
same,GI50,[50],1630 nM
same,TGI,[50],3000 nM
same,GI50,[51],284 nM
same,TGI,[51],827 nM
same,GI50,[52],451 nM
same,TGI,[52],1590 nM
same,GI50,[53],331 nM
same,TGI,[53],1210 nM
same,GI50,[54],1020 nM
same,TGI,[54],2190 nM
